For the assay, the target named is T1, MCL-1 protein (Homo sapiens, UniProt Q07820).
T1 construct: Bim peptide bought from R&D, 3526/1 NA
Kind of assay: MCL-1 protein binding experiment (HTRF, MCL-1/Bim). As to conditions: for inhibition at up to 10 µM / Maximum inhibition rate (%): HTRF MCL-1/Bim binding, initial concentration 10 μM; for inhibition at up to 10 µM: read-out: Maximum inhibition rate (%); for Ki: HTRF, 0.1 nM His-MCL-1, 2.5 nM bio-Bim, room temperature. The protocol: The following method was used to determine the binding ability of the compound of the present invention to MCL-1 protein. The experimental method is briefly described as follows.
MCL-1 inhibitors can bind to MCL-1 protein to prevent the binding of MCL-1 to Bim protein. The experiment evaluates the binding ability of MCL-1 inhibitor to MCL-1 protein by detecting the binding of MCL-1 to Bim protein through HTRF method, and the activity of the compound was evaluated according to the Ki value.
The mixture was incubated at room temperature for 2 hours, followed by the detection of fluorescence signals at 620 nm and 665 nm by PHERAstar. The data was processed by GraphPad software.
(In TR-FRET formats the signal depends on donor and acceptor labels being close together.)

T1 sequence (Q07820 171-327): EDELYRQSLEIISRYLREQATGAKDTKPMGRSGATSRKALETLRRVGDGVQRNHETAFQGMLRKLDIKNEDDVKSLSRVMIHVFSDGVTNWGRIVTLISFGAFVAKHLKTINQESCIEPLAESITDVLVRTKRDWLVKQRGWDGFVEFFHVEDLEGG

Broadly, the inhibition is the drop in the measured response relative to a control, in per cent. In general, Ki refers to the dissociation constant of the complex between target and ligand, obtained from inhibition or displacement. A higher Ki goes with a looser hold on the target. Regarding `Cc1c2c(nn1C)CSCc1cc(n(C)n1)CSc1cc(c3ccccc3c1)OCCCn1c(C(=O)O)cc3c-2c(Cl)ccc31` (single isomer, unassigned) [Example 1-1, (Ra)-17-Chloro-5,13-14-trimethyl-28-oxa-2,9-dithia-5,6,12,13,24-pentaazaheptacyclo[27.7.1.1^4,7.0^11,15.0^16,21.0^20,24.0^30,35]octatriaconta-1(37),4(38),6,11,14,16,18,20,22,29,31,33,35-tridecaene-23-carboxylic acid], the inhibition at up to 10 µM stood at 100% and the Ki was determined as 0.36 nM.
Consider `Cc1c2c(nn1C)CSCc1cc(n(C)n1)CSc1cc(c3ccccc3c1)OCCCn1c(C(=O)O)cc3c-2c(Cl)ccc31` (single isomer, unassigned) [Example 1-2, (Sa)-17-Chloro-5,13-14-trimethyl-28-oxa-2,9-dithia-5,6,12,13,24-pentaazaheptacyclo[27.7.1.1^4,7.0^11,15.0^16,21.0^20,24.0^30,35]octatriaconta-1(37),4(38),6,11,14,16,18,20,22,29,31,33,35-tridecaene-23-carboxylic acid], for which the “Maximum inhibition rate (%)” value is 100% and the affinity, expressed as Ki, was 56 nM.
As for `Cc1c(C(=O)O)n2c3ccc(Cl)c(c13)-c1c(nn(C)c1C)CSCc1cc(n(C)n1)CSc1cc(c3ccccc3c1)OCCC2` (single isomer, unassigned) [Example 2-2, (Sa)-17-Chloro-5,13,14,22-tetramethyl-28-oxa-2,9-dithia-5,6,12,13,24-pentaazaheptacyclo[27.7.1.1^4,7.0^11,15.0^16,21.0^20,24.0^30,35]octatriaconta-1(37),4(38),6,11,14,16,18,20,22,29,31,33,35-tridecaene-23-carboxylic acid], the Ki was found to be 65 nM. In addition, for the setting “10 µM”, the “Maximum inhibition rate (%)” value came out at 95%.
`Cc1c(C(=O)O)n2c3ccc(Cl)c(c13)-c1c(nn(C)c1C)CN(C)Cc1cc(n(C)n1)CSc1cc(c3ccccc3c1)OCCC2` (single isomer, unassigned) [Example 3-1, (Ra)-17-Chloro-5,9,13,14,22-pentamethyl-28-oxa-2-thia-5,6,9,12,13,24-hexaazaheptacyclo[27.7.1.1^4,7.0^11,15.0^16,21.0^20,24.0^30,35]octatriaconta-1(37),4(38),6,11,14,16,18,20,22,29,31,33,35-tridecaene-23-carboxylic acid]: the inhibition at up to 10 µM was determined as 100% and the Ki is 0.18 nM.
On to `Cc1c(C(=O)O)n2c3ccc(Cl)c(c13)-c1c(nn(C)c1C)CN(C)Cc1cc(n(C)n1)CSc1cc(c3ccccc3c1)OCCC2` (single isomer, unassigned) [Example 3-2, (Sa)-17-Chloro-5,9,13,14,22-pentamethyl-28-oxa-2-thia-5,6,9,12,13,24-hexaazaheptacyclo[27.7.1.1^4,7.0^11,15.0^16,21.0^20,24.0^30,35]octatriaconta-1(37),4(38),6,11,14,16,18,20,22,29,31,33,35-tridecaene-23-carboxylic acid], for which the Ki turned out to be 14 nM. Further, the “Maximum inhibition rate (%)” value (10 µM) turned out to be 99%.
In the same order, the values of `Cc1c(C(=O)O)n2c3ccc(Cl)c(c13)-c1c(nn(C)c1C)CSCc1cc(n(C)n1)CSc1cc3c(c(c1)OCCC2)CCCC3` (single isomer, unassigned) [Example 7-2, (Sa)-17-Chloro-5,13,14,22-tetramethyl-28-oxa-2,9-dithia-5,6,12,13,24-pentaazaheptacyclo[27.7.1.1^4,7.0^11,15.0^16,21.0^20,24.0^30,35]octatriaconta-1(37),4(38),6,11,14,16,18,20,22,29,35-undecaene-23-carboxylic acid] are 15 nM and 100%.
In the same order, the values of `Cc1c(C(=O)O)n2c3ccc(Cl)c(c13)-c1c(nn(C)c1C)CSCc1cc(n(C)n1)CCc1cc3c(c(c1)OCCC2)CCCC3` (single isomer, unassigned) [Example 8-2, (Sa)-17-Chloro-5,13,14,22-tetramethyl-28-oxa-9-thia-5,6,12,13,24-pentaazaheptacyclo[27.7.1.1^4,7.0^11,15.0^16,21.0^20,24.0^30,35]octatriaconta-1(37),4(38),6,11,14,16,18,20,22,29,35-undecaene-23-carboxylic acid] are 57 nM and 98%.
Turning to `Cc1c(C(=O)O)n2c3ccc(Cl)c(c13)-c1c(nn(C)c1C)CSCc1cc(n(C)n1)CSc1cc(cc3c1CCC3)OCCC2` (single isomer, unassigned) [Example 12-2, (Sa)-17-Chloro-5,13,14,22-tetramethyl-28-oxa-2,9-dithia-5,6,12,13,24-pentaazaheptacyclo[27.6.1.1^4,7.0^11,15.0^16,21.0^20,24.0^30,35]heptatriaconta-1(36),4(37),6,11,14,16,18,20,22,29,31(35)-undecaene-23-carboxylic acid], the “Maximum inhibition rate (%)” value was found to be 100% and the inhibition constant Ki came out at 5.7 nM.
Molecule `Cc1c(C(=O)O)n2c3ccc(Cl)c(c13)-c1c(nn(C)c1C)CSCc1cc(n(C)n1)CSc1cc3c(c(c1)OCCC2)CCC3` (single isomer, unassigned) [Example 13-2, (Sa)-17-Chloro-5,13,14,22-tetramethyl-28-oxa-2,9-dithia-5,6,12,13,24-pentaazaheptacyclo[27.6.1.1^4,7.0^11,15.0^16,21.0^20,24.0^30,34]heptatriaconta-1(36),4(37),6,11,14,16,18,20,22,29,34-undecaene-23-carboxylic acid] gave an inhibition constant (Ki) of 4.4 nM. Besides, the “Maximum inhibition rate (%)” value (10 µM) came out at 99%.
Consider `CCc1c(C(=O)O)n2c3ccc(Cl)c(c13)-c1c(nn(C)c1C)CSCc1cc(n(C)n1)CSc1cc(c3ccccc3c1)OCCC2` (single isomer, unassigned) [Example 14-1, (Ra)-17-Chloro-22-ethyl-5,13-14-trimethyl-28-oxa-2,9-dithia-5,6,12,13,24-pentaazaheptacyclo[27.7.1.1^4,7.0^11,15.0^16,21.0^20,24.0^30,35]octatriaconta-1(37),4(38),6,11,14,16,18,20,22,29,31,33,35-tridecaene-23-carboxylic acid], for which the inhibition at up to 10 µM worked out at 100% and the affinity corresponds to a Ki of 0.32 nM.
In the same order, the values of `Cc1c2c(nn1C)CSCc1cc(n(C)n1)CSc1cc(c3ccccc3c1)OCCCn1c(C(=O)O)cc3c-2c(Cl)ccc31` [Example 1, 17-Chloro-5,13-14-trimethyl-28-oxa-2,9-dithia-5,6,12,13,24-pentaazaheptacyclo[27.7.1.1^4,7.0^11,15.0^16,21.0^20,24.0^30,35]octatriaconta-1(37),4(38),6,11,14,16,18,20,22,29,31,33,35-tridecaene-23-carboxylic acid] are 100% and 2.39 nM.
In the same order, the values of `Cc1c(C(=O)O)n2c3ccc(Cl)c(c13)-c1c(nn(C)c1C)CSCc1cc(n(C)n1)CSc1cc(c3ccccc3c1)OCCC2` [Example 2, 17-Chloro-5,13,14,22-tetramethyl-28-oxa-2,9-dithia-5,6,12,13,24-pentaazaheptacyclo[27.7.1.1^4,7.0^11,15.0^16,21.0^20,24.0^30,35]octatriaconta-1(37),4(38),6,11,14,16,18,20,22,29,31,33,35-tridecaene-23-carboxylic acid] are 99% and 0.18 nM.
In the same order, the values of `Cc1c(C(=O)O)n2c3ccc(Cl)c(c13)-c1c(nn(C)c1C)CN(C)Cc1cc(n(C)n1)CSc1cc(c3ccccc3c1)OCCC2` [Example 3, 17-Chloro-5,9,13,14,22-pentamethyl-28-oxa-2-thia-5,6,9,12,13,24-hexaazaheptacyclo[27.7.1.1^4,7.0^11,15.0^16,21.0^20,24.0^30,35]octatriaconta-1(37),4(38),6,11,14,16,18,20,22,29,31,33,35-tridecaene-23-carboxylic acid] are 100% and 0.6 nM.
On to `Cc1c(C(=O)O)n2c3ccc(Cl)c(c13)-c1c(nn(C)c1C)CSCc1cc(n(C)n1)CCc1cc(c3ccccc3c1)OCCC2` [Example 4, 17-Chloro-5,13,14,22-tetramethyl-28-oxa-9-thia-5,6,12,13,24-pentaazaheptacyclo[27.7.1.1^4,7.0^11,15.0^16,21.0^20,24.0^30,35]octatriaconta-1(37),4(38),6,11,14,16,18,20,22,29,31,33,35-tridecaene-23-carboxylic acid], for which the inhibition at up to 10 µM turned out to be 99% and the Ki was 1.35 nM.
In the same order, the values of `Cc1cc2cc(c1)SCc1cc(nn1C)CN(C)Cc1nn(C)c(C)c1-c1c(Cl)ccc3c1c(C)c(C(=O)O)n3CCCO2` [Example 5, 17-Chloro-5,9,13,14,22,31-hexamethyl-28-oxa-2-thia-5,6,9,12,13,24-hexaazahexacyclo[27.3.1.1^4,7.0^11,15.0^16,21.0^20.24]tetratriaconta-1(33),4(34),6,11,14,16,18,20,22,29,31-undecaene-23-carboxylic acid] are 99% and 4.8 nM.
In the same order, the values of `Cc1cc2cc(c1)SCc1cc(nn1C)CSCc1nn(C)c(C)c1-c1c(Cl)ccc3c1c(C)c(C(=O)O)n3CCCO2` [Example 6, 17-Chloro-5,13,14,22,31-pentamethyl-28-oxa-2,9-dithia-5,6,12,13,24-pentaazahexacyclo[27.3.1.1^4,7.0^11,15.0^16,21.0^20,24]tetratriaconta-1(33),4(34),6,11,14,16,18,20,22,29,31-undecaene-23-carboxylic acid] are 98% and 1.9 nM.

These data come from patent US20220041623A1, “INDOLE MACROCYCLIC DERIVATIVE, PREPARATION METHOD THEREOF AND APPLICATION THEREOF IN MEDICINE” (JIANGSU HENGRUI MEDICINE CO., LTD., priority 2018, published 2022).
